# Counter-ions that a name gives are not always drawn. Like-named read-outs stand apart in the source and are kept apart here.
# Legend:
# [1] = addition of 100 mg ritonavir to 300 mg atazanavir; cited from earlier work
# [2] = cited from earlier work
# [3] = cited from earlier work; remark: listed apart in the source
# [4] = system: P-gp; settings: cited from earlier work
# [5] = human, in vivo
# [6] = system: gastric pH; settings: cited from earlier work
# [7] = system: gastric pH; test: Intra-gastric pH monitoring with the Heidelberg pH capsule; format: in vivo, human
# [8] = administered with Coca-Cola (pH = 2.5) compared to water; cited from earlier work
# [9] = fed state, rabeprazole pretreated
smiles,measurement,setting,value
COC(=O)N[C@H](C(=O)N[C@@H](Cc1ccccc1)[C@@H](O)CN(Cc1ccc(-c2ccccn2)cc1)NC(=O)[C@@H](NC(=O)OC)C(C)(C)C)C(C)(C)C [Atazanavir],Increase in atazanavir AUC,[1],238%
same,Increase in atazanavir Cmax,[1],86%
same,Solubility,[2]; pH 2,5200 µg/mL
same,Solubility,[2]; pH 4,< 5 µg/mL
same,Reductions in boosted atazanavir exposures,[3]; omeprazole 20 mg once daily,39-46%
same,Exposure reductions,"[3]; ritonavir-boosted atazanavir with omeprazole 40 mg once daily, light meal",72-76%
same,Inhibitory effect of a known P-gp inhibitor on atazanavir efflux,[4]; pH 5.5,78%
same,Inhibitory effect of a known P-gp inhibitor on atazanavir efflux,[4]; pH 7.4,245%
same,AUClast lost due to rabeprazole that was restored by addition of BHCl,[5],12%
same,Differences in Tmax across treatments,[5],No significant differences
same,Individual decrease in AUClast and Cmax after rabeprazole pretreatment,[5],11-48%
same,Mean exposure lost due to rabeprazole that was restored by addition of BHCl,[5],12-13%
same,Mean plasma concentration in Treatment C compared with Treatment B,[5]; 1.5 h,3.4 times
"C[N+](C)(C)CC(=O)O [BHCl, betaine hydrochloride]",Average onset of effect (time to achieve a pH < 3),"[6]; pilot study, rabeprazole-pretreated healthy volunteers",~5 minutes
same,Lowest observed gastric pH,"[7]; 1500 mg BHCl after rabeprazole pretreatment, fed state, mean ± SD",0.838 ±0.391
same,Length of the reacidification period (time for gastric pH to rebound to pH >4),[7]; [9],76 ±20 minutes
same,Time to achieve lowest gastric pH after BHCl administration,[7]; [9],67 ±33 minutes
CC(C)c1nc(CN(C)C(=O)N[C@H](C(=O)N[C@@H](Cc2ccccc2)C[C@H](O)[C@H](Cc2ccccc2)NC(=O)OCc2cncs2)C(C)C)cs1 [Ritonavir],AUClast lost due to rabeprazole that was restored by addition of BHCl,[5],13%
same,Cmax lost due to rabeprazole that was restored by addition of BHCl,[5],12%
COc1ccc2[nH]c([S+]([O-])Cc3ncc(C)c(OC)c3C)nc2c1 (stereo not shown) [omeprazole],Gastric pH around the time of atazanavir administration,[6]; pretreatment with high-dose omeprazole,~6
CC[C@@H]([C@H](C)O)n1ncn(-c2ccc(N3CCN(c4ccc(OC[C@@H]5CO[C@@](Cn6cncn6)(c6ccc(F)cc6F)C5)cc4)CC3)cc2)c1=O [posaconazole],Increase in systemic exposure,[8],> 70%
COCCCOc1ccnc(C[S+]([O-])c2nc3ccccc3[nH]2)c1C (stereo not shown) [rabeprazole],Gastric pH around the time of atazanavir administration,"[7]; pretreatment with rabeprazole, after light meal",~3

# Reference: publication PMC7179955 (Pharmaceutical research, 2016)
